For data set [1] the following is noted: cited from earlier work.
The nature of data set [2]: solubility of PMIDA. It is filed as physicochemical. The conditions noted are these: room temperature. From the text:
The solubility of the PMIDA in the MSA and the ability of both the MSA and the PMIDA to remove acid-soluble materials of the present disclosure synergistically operate to continuously remove acid-soluble materials at deeper far-field locations than traditional acid fluids, which may become spent prior to reaching such deep areas.
In the working temperature range of the treatment fluid, as described above, the PMIDA may be solubilized in the MSA of the treatment fluids described herein. In some embodiments, the PMIDA is about 5% w/v soluble at room temperature in a solution of about 70% MSA in an aqueous base fluid, described below. In other embodiments, higher w/v concentrations of PMIDA may be prepared using varied solutions of MSA alone or in combination with an aqueous base fluid, which will undergo different dissolution amounts depending on the working temperature of the treatment fluid. Each of these values is critical to the embodiments described herein and may depend on a number of factors including, but not limited to, the working temperature of the treatment fluid (e.g., the temperature or temperature range of the subterranean formation being treated), the amount of MSA in the treatment fluid relative to the PMIDA, the amount of PMIDA in the treatment fluid relative to the MSA, and the like.

For data set [3] the following is noted: 25° C.; cited from earlier work.

Like-named read-outs stand apart in the source and are kept apart here. A value given as a limit tells only on which side of the number the result lay.

Broadly, the pKa is the negative logarithm of the acid dissociation constant.

Consider methanesulfonic acid [MSA], for which the pKa result in data set [1] (25° C. in dimethyl sulfoxide) is listed as “about 1.6”; in data set [1] (25° C. in water), −1.9.

On to `O=C(O)CN(CC(=O)O)CP(=O)(O)O` [PMIDA, N-(phosphonomethyl)iminodiacetic acid], for which the “soluble in a solution of about 70% MSA in an aqueous base fluid” value in data set [2] is reported as “about 5 % w/v”. In addition, the solubility in water in data set [3] was below 500 µg/mL.

Values taken from US9745506B2, “Treatment fluids for use in removing acid-soluble materials in subterranean formations” (Halliburton Energy Services, Inc., priority 2015, dated 2017).
